We go through one compound from patent US20130287688A1, “NOVEL COMPOSITIONS AND USES OF ANTI-HYPERTENSION AGENTS FOR CANCER THERAPY” (XTUIT PHARMACEUTICALS, INC., priority 2010, published 2013).

The test system of assay [1] is HSTS26T tumors. The assay can be described thus: Protein levels in homogenized tumors (ELISA). Type of assay: in vivo, mice. The source says: Tumors were excised after two weeks of treatment, homogenized and analyzed for total and activated TGF-β1 levels by ELISA.
On the technique in general: ELISA stands for enzyme-linked immunosorbent assay.

In assay [2] the test system is carcinoma associated fibroblasts (CAFs). Particulars: losartan 10 μmol/L, 24 hrs.
Procedure: Protein assays were done with commercial ELISA kits.
CAFs were plated in 24 well plates at a concentration of 500K cells/well. […] Treatment was done in low serum to reduce background collagen levels. Conditioned medium was collected at the end of the 24-hr treatment period and analyzed for collagen levels.
Collagen I measurements were done with a type I C-terminal collagen propetide Enzyme Linked Immunosorbent Assay (ELISA) kit (Quidel, San Diego, Calif.) and the Sircol soluble collagen assay (Biocolor Ltd., United Kingdom). TGF-β1 assays were performed with a human TGF-β1 ELISA kit (R&D Systems, Minneapolis, Minn.). The assay only measures the free-form of mature TGF-β1. To measure total levels of TGF-β1 the latent form of TGF-β1 was activated with 1N HCl.
Assay [3] has as its system Mu89 tumors. The assay can be described thus: Distribution of intratumorally injected 100 nm nanoparticles. Conditions: 100 nm diameter nanoparticles. The assay is classed as in vivo, mice. The source says:
(§1) Based on the previous studies on the tumor interstitial matrix (Pluen A, et al. (2001) Proc Natl Acad Sci USA 98:4628-4633 and Brown E, et al. (2003) Nat Med 9:796-800), the inventors then sought to determine if a decrease in collagen content by Losartan can improve the intratumoral distribution of nanoparticles. The inventors therefore measured the intratumoral distribution of fluorescent polystyrene nanoparticles (100 nm diameter) in three different tumor types—HSTS26T, Mu89, and L3.6 pl—after an i.t. or i.v. injection. In mice injected i.t. with nanoparticles, losartan improved nanoparticle accumulation and penetration in the tumor center (FIG. 8A; HSTS26T p<0.001, Mu89 p<0.001). Conversely, there was little or no nanoparticle accumulation in the center of control tumors. Most of the injected nanoparticles in control tumors were found in the tumor margin and around the needle insertion point (FIG. 8A). The inventors also determined the effects of losartan on the intratumoral distribution of oncolytic HSV.
(§2) Nanoparticles and oncolytic HSV were infused with a syringe pump (Harvard Apparatus Standard Pump 22, Holliston, Mass.) at a flow rate of 4 μl/min. The inventors injected 10 μl of HSV (2.5×10^5 t.u.) expressing the green fluorescent protein (GFP), or 10 μl of fluorescent nanoparticles (diameter of […]; concentration of 1×10^13 nanoparticles/ml). […]

The subject of assay [4] is HSTS26T tumors. The assay is described as above. The assay is classed as in vivo, mice. Particulars: 100 nm diameter nanoparticles.
Source text: as §1, §2

Assay [5] concerns L3.6 pl orthotopic pancreatic tumors. Nature of the assay: Distribution and penetration of intravenously injected 100 nm nanoparticles. Type of assay: in vivo, mice. Particulars: i.v. injected 100 nm nanoparticles. How it is done:
The inventors then assessed the effect of losartan on blood vessel perfusion and the intratumoral distribution of i.v. injected nanoparticles in mice with orthotopic pancreatic tumors (L3.6 pl).
A total volume of 10 μl at a concentration of 3.6×10^13 nanoparticles/ml was injected via the tail vein. Twenty-four hrs later 50 μl of FITC-lectin was injected to identify functional vessels. Five min after the lectin-injection tumors were resected, fixed in paraformaldehyde and embedded in OCT. Tumors were then sectioned before confocal imaging and analysis. The extent of nanosphere distribution was determined by measuring the fraction of pixels brighter than the background signal. Nanosphere penetration was determined by drawing contours around perfused vessels and recording the fraction of pixels positive for nanospheres in each contour. Contours extended out to 30 μm for each perfused vessel. Using a previously described algorithm (Tong R T, et al. (2004) Cancer Res 64:3731-3736), the inventors fit the plot of nanosphere fraction and distance away from the vessel to an exponential and obtained a relative penetration depth of nanospheres from each vessel.

[6] abbreviates: 15 mg/kg/day in drinking water, two weeks.

For the compound `CCCCc1nc(Cl)c(CO)n1Cc1ccc(-c2ccccc2-c2nn[nH]n2)cc1` [losartan], in assay [1] (setting [6]), the “reduction in TSP-1” value was 3.5 fold, the “reduction in active TGF-β1” value is given as 4 fold and the “reduction in collagen 1” value is on record as “two fold reduction”. Further, the “total TGF-β1 levels” value in assay [1] (homogenized tumors) is on record as “did not affect”. In assay [2], the “decrease in collagen I levels” value was 27%, the “reduction of active-TGF-β1 levels” value was 90% and the “total TGF-β1 levels” value is “unaffected”. Moreover, the “increase in distribution of i.t.-injected nanoparticles” value in assay [3] was found to be 4 fold. Moreover, the “increase in distribution of i.t.-injected nanoparticles” value in assay [4] is given as 1.5 fold. In assay [5], the “nanoparticle content in tumors vs control” value is “two-fold increase”.
